Common to all, as to type: biochemical
In test [1] the target is T1, human BChE isolated from plasma (Homo sapiens, UniProt P06276).
T1 construct: native, purified from human plasma, gift from F. Nachon
The experiment in a line: Ellman assay. An excerpt: Ellman assay on human BChE isolated from plasma

Test [2] deals with T1, human BChE isolated from plasma. The experiment in a line: Ellman assay; joint IC50 over all ATCh concentrations. To be noted: read-out: Approx. IC50. The text has this:
Ellman assay; joint IC50 over all ATCh concentrations on human BChE isolated from plasma

The target of test [3] is T2, human recombinant AChE (Homo sapiens, UniProt P22303).
T2 construct: recombinant human AChE, gift from F. Nachon
The description is as above. The following applies: read-out: Approx. IC50. The text has this:
Ellman assay; joint IC50 over all ATCh concentrations on human recombinant AChE

Test [4] addresses T2, human recombinant AChE. The experiment in a line: Ellman assay. The text has this:
Ellman assay on human recombinant AChE

T2 sequence (P22303 32-614): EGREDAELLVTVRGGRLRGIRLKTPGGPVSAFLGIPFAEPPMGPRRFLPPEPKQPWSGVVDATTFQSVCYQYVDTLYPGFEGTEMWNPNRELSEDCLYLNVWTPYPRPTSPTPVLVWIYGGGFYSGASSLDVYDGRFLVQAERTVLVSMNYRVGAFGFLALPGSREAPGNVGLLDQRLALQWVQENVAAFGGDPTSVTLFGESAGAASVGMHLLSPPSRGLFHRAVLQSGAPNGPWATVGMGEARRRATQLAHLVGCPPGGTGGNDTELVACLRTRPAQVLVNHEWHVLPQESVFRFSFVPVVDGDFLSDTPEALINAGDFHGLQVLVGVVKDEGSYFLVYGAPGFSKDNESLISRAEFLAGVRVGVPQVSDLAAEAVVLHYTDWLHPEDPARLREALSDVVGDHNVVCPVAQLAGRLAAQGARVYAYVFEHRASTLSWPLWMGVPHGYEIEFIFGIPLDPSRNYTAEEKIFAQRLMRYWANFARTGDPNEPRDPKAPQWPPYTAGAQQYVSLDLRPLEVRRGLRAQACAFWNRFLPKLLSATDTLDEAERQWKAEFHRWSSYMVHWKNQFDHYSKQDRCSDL
T1 sequence (P06276 29-602): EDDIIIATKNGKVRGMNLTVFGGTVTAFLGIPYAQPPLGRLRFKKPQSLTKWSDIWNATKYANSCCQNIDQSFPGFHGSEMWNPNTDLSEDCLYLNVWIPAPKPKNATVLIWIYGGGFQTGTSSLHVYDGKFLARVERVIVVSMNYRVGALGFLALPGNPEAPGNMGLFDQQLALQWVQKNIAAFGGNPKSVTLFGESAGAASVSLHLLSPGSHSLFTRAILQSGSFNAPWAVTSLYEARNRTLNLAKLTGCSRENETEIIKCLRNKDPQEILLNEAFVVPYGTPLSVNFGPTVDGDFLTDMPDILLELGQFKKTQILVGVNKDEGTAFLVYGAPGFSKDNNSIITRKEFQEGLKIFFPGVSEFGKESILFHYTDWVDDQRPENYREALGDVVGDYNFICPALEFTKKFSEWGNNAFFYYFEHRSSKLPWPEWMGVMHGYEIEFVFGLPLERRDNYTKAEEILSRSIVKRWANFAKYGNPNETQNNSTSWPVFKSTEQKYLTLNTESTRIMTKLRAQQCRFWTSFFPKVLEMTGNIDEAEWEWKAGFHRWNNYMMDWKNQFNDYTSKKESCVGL

For the compound `O=C(O)CNCP(=O)(O)O` [glyphosate, N-(phosphonomethyl)glycine], the Ki in test [1] was determined as 19.3 ± 1.8 mM; at human recombinant AChE [4] it was 28.4 ± 2.7 mM. The IC50 in test [2] is about 20 mM; on human recombinant AChE [3], about 25.1 mM.

The record behind these values is article PMC10978157, “Environmental exposure to glyphosate does not inhibit human acetylcholinesterase and butyrylcholinesterase” (Archives of Industrial Hygiene and Toxicology, 2024).
